# Measurements as given in patent US20150297609A1, “STERILE OPHTHALMIC PHARMACEUTICAL SUSPENSIONS” (SENTISS PHARMA PVT. LTD., priority 2012, published 2015).
# Experiment: Particle size analysis of brinzolamide precipitated after autoclaving
# Assay type: physicochemical
# Details: precipitated during cooling after autoclaving, before size reduction
# Source text: The precipitated brinzolamide is preferably in partially amorphous or crystalline form, preferably in crystalline form, more preferably in highly crystalline form. The particles are preferably in the form of fine particles. More preferably the fine particulate has an average particle size of less than 100 μm, more preferably less than 50 μm. The particle size can be reduced further by sonication to an average particle size less than […], more preferably less than 30 pm or 20 pm. Any method can be used to determine particle size distribution. One preferred method is to use a light scattering or Coulter counter method. It is preferred that 90% of the particles (D(0.9)) be less than 15 pm, more preferably, D(0.9) is in the range of 10-15 pm. It is preferred that 100% of the particles (D(1)) be less than 30 pm, more preferably less than about 20 pm.
# During autoclaving due to high temperature and pressure, brinzolamide goes in solution. Upon completion of the autoclave cycle, during cooling, brinzolamide starts precipitating out. Brinzolamide forms needle shaped crystals of 1000 to 3000 microns. These needle shaped crystals of brinzolamide are further reduced in fine crystalline form to be used in the present invention formulation and the reduced particle size is as per table 3.
# This particle size is further reduced to […] through rapid cooling with stirring. […]
structure (smiles),measurement,value
"CCN[C@H]1CN(CCCOC)S(=O)(=O)c2sc(S(N)(=O)=O)cc21 [API, (R)-(+)-4-ethylamino-2-(3-methoxypropyl)-3,4-dihydro-2H-thieno[3,2-e]-1,2-thiazine-6-sulfonamide-1,1-dioxide]",size of needle shaped crystals,1000 to 3000 microns
